Results reported in patent publication US11795169B2, “MAP4K4 inhibitors” (IMPERIAL COLLEGE INNOVATIONS LIMITED, priority 2017, dated 2023).
Counter-ions that a name gives are not always drawn.

Target: human MAP4K4 kinase domain (Homo sapiens (Human), UniProt O95819)
Assay: MAP4K4 kinase activity, CisBio HTRF Transcreener ADP assay
Type: biochemical
Conditions: ATP at Km (10 μM), 0.5 nM kinase domain, 2 h; read-out: MAP4K4
From the text: Compounds of the present invention were screened for their inhibitory activity against MAP4K4, versus selected off-target hits found with early members of this chemical series. MAP4K4 kinase activity was monitored using the CisBio HTRF Transcreener ADP assay, acompetitive immunoassay with a reproducible Z′>0.6. In the detection step, endogenous ADP and d2-labeled ADP compete for binding an anti-ADP monoclonal antibody labelled with Eu^3+ cryptate. A ratiometric fluorescent read-out is used at 665 and 620 nm. […] Assays were run in Greiner low volume plates with a final reaction volume of 10 μl. The MAP4K4 inhibition data are provided in Table 33 below for selected compounds of the present invention. The data has been categorised based on the IC50 value of the compound as “A”, “B” or “C”.

Chain of human MAP4K4 kinase domain (O95819 25-289): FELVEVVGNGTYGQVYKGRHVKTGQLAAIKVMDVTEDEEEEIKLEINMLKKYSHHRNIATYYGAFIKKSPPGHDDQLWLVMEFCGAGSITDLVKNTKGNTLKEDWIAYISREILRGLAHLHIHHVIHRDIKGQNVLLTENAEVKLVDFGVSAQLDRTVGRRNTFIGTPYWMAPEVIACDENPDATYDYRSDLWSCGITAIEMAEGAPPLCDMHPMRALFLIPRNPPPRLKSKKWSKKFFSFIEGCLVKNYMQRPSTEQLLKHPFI

Compound	IC50 [nM]
C[C@H](O)COc1ccc(-c2cn(-c3ccccc3)c3nc[nH]c(=O)c23)cc1 [Ex-53]	≤ 100
O=C(O)c1cccc(-c2cn(-c3ccccc3)c3c(=O)[nH]cnc23)c1 [Ex-101, 3-(4-Oxo-5-phenyl-4,5-dihydro-3H-pyrrolo[3,2-d]pyrimidin-7-yl)-benzoic acid]	> 1000
CS(=O)(=O)c1ccc(-n2cc(-c3ccccc3)c3c(=O)[nH]cnc32)cc1 [Ex-3]	> 1000
O=c1[nH]cnc2c1c(-c1cccc(OCCO)c1)cn2-c1ccccc1 [Ex-47]	100 to 1000
O=c1[nH]cnc2c1c(-c1c(F)cccc1F)cn2-c1ccccc1 [Ex-34]	100 to 1000
O=c1[nH]cnc2c1c(-c1ccc(OCC3CNC3)cc1)cn2-c1ccccc1 [Ex-80, 5-[4-(Azetidin-3-ylmethoxy)-phenyl]-7-phenyl-3,7-dihydro-pyrrolo[2,3-d]pyrimidin-4-one-formate salt]	≤ 100
Cc1cc(OCCO)ccc1-c1cn(-c2ccccc2)c2nc[nH]c(=O)c12 [Ex-57]	≤ 100
CN(C)CCN1CCN(c2ccc(-c3cn(-c4ccccc4)c4nc[nH]c(=O)c34)cc2)C1=O [Ex-33]	≤ 100
CN(CC(O)COc1ccc(-c2cn(-c3ccccc3)c3c(=O)[nH]cnc23)cc1)C1CC1 (centres unmarked) [Ex-90]	100 to 1000
COc1ccc(-n2cc(-c3ccc(OCCCN(C)C)cc3)c3nc[nH]c(=O)c32)cc1 [Ex-85]	≤ 100
NC(=O)c1cccc(-n2cc(-c3ccccc3)c3c(=O)[nH]cnc32)c1 [Ex-2]	≤ 100
COc1cccc(-n2cc(-c3ccc(OCC(O)CN4CCOCC4)cc3)c3c(=O)[nH]cnc32)c1 (centres unmarked) [Ex-41, 5-[4-(2-Hydroxy-3-morpholin-4-yl-propoxy)-phenyl]-7-(3-methoxy-phenyl)-3,7-dihydro-pyrrolo[2,3-d]pyrimidin-4-one]	≤ 100
O=C(CN1CCOCC1)Nc1ccc(-c2cn(-c3ccccc3)c3nc[nH]c(=O)c23)cc1 [Ex-16]	≤ 100
O=c1[nH]cnc2c1c(-c1ccc(OCC3(O)COC3)cc1)cn2-c1ccccc1 [Ex-69]	≤ 100
